Entries after “also recorded” stand apart in the source; their conditions may differ.
Experiments:
129S6/SvEvTac mice [1] = test: Learned helplessness (LH) shock escape; type: in vivo; conditions: ketamine 30 mg kg^−1 1 week before LH training, vs saline
Protocol: Experiment 4 (Pre-ketamine in learned helplessness (LH)); At 8 weeks of age, a single injection of saline or ketamine (30 mg kg^−1) was administered. One week following this injection, LH training (inescapable shock) was administered. Two weeks later, mice were administered LH testing (shock escape).
The LH paradigm was used to induce depressive-like behavior (A4). In this paradigm, mice are exposed to unpredictable and uncontrollable stress (shocks) and then develop coping deficits to deal with the inescapable shocks. We modified a previously published paradigm (A5). Briefly, the procedure was conducted in a two-chamber shuttle box (model ENV 010MD; Med Associates, St. Albans, Vt.) located within a sound-attenuated cubicle. The grid floor was made of stainless steel and connected to a shock generator. The scrambled shock generator (model ENV 414S, Med Associates) created varying electrical potential differences between bars preventing an animal from avoiding shock.
Inescapable shock (training): At approximately 9 weeks of age, mice were trained in the LH paradigm. For each shuttle box, 2 animals were administered the protocol at the same time: the central door was closed, with one animal in the chamber on each side. After a 3 min habituation period, the shock deliveries began. […]

military patients = conditions: McGhee et al., cited from earlier work
patients with MDD = conditions: cited from earlier work
129S6/SvEvTac mice [2] = test: Novelty suppressed feeding (NSF) in SD experiments; type: in vivo
Protocol: (§1) Testing was performed as previously described (A13). Briefly, the testing apparatus consisted of a plastic box (50×50×20 cm). The floor was covered with approximately 2 cm of wooden bedding and the arena was brightly lit (1100-1200 lux). For 129S6/SvEv experiments, mice were food restricted for 12 h. For the C57BL/6N experiments, mice were food restricted for 24 h. All food was removed from the home cage. At the time of testing, a single pellet of food (regular chow) was placed on a white paper platform positioned in the center of the box. Each animal was placed in a corner of the box, and a stopwatch was immediately started. The latency of the mice to begin eating was recorded. Immediately after the latency was recorded, the food pellet was removed from the arena. The mice were then placed into a cage and the amount of food consumed in 5 min was measured (home cage consumption), followed by an assessment of post-restriction weight. We used the Kaplan-Meier survival analysis due to the lack of normal distribution of data. The Mantel-Cox log-rank test was used to evaluate differences between the experimental groups.

[3] = Body weight loss before NSF in SD experiments; type: in vivo; conditions: SD mice; ketamine after SD; vs saline
Protocol: as §1

[4] = tested on: hypothalamic-pituitary-adrenal (HPA) axis; test: Corticosterone enzyme immunoassay after a brief stressor (SD model); type: in vivo; conditions: SD mice; ketamine 10, 30 or 90 mg kg^−1 before SD; vs Ctrl-Sal
Protocol: Mice were exposed to a minor stressor for 10 min and then returned to their home cages. Blood was collected from awake mice 70 min after the start of the stressor from the retro-orbital sinus using hematocrit tubes. Blood was then transferred to Eppendorf tubes pre-coated with 5 μl 0.5 M EDTA, placed on ice, and immediately spun down to obtain plasma for subsequent EIA. Plasma was stored at −80° C. until analysis. EIA was performed using a DetectX Corticosterone EIA Kit (#K014-H1, Arbor Assays).

129S6/SvEvTac mice [5] = test: Elevated plus maze (EPM) in SD experiments; type: in vivo; conditions: ketamine 30 mg kg^−1 before SD; Ctrl and SD groups
Protocol: Testing was performed as previously described (A14). Briefly, the maze is a plus-cross-shaped apparatus consisting of four arms, two open and two enclosed by walls, linked by a central platform at a height of 50 cm from the floor. Mice were individually placed in the center of the maze facing an open arm and were allowed to explore the maze for 5 min. The time spent in and the number of entries into the open arms was used as an anxiety index. For the 12956/SvEv experiments, videos were scored using behavioral tracking software (TopScan, CleverSys, Reston, Va.). For the C57BL/6Ntac experiments, all parameters were measured using a videotracker (EPM3C. Bioseb, Vitrolles, France).

C57BL/6NTac mice = test: Sucrose splash test (ST) in CORT model; type: in vivo; conditions: ketamine 90 mg kg^−1 or fluoxetine, before CORT
Protocol: Experiment 5 (Pre-ketamine and pre-fluoxetine corticosterone (CORT)): C57BL16NTac mice were injected with ketamine (10, 30, 90 mg kg^−1, i.p.) 1 week before the start of CORT, or administered fluoxetine (18 mg kg^−1 per day) in the drinking water for 3 weeks before the start of CORT. Ketamine was purchased from Merial (100 mg/ml stock solution). Fluoxetine hydrochloride (160 μg/mL, equivalent to 18 mg kg^−1 per day in the drinking water) was purchased from Anawa Trading (Zurich, Switzerland) and dissolved in 0.45% hydroxypropyl-β-cyclodextrin (β-CD) (Sigma-Aldrich, Saint-Quentin Fallavier, France) solution. Following ketamine or fluoxetine treatment, CORT was administered for 3 weeks in the drinking water. CORT (4-pregnen-11b-DIOL-3 20-DIONE 21-hemisuccinate) (35 μg/ml) from. Sigma Aldrich (Saint-Quentin Fallavier, France) was dissolved in vehicle (0.45% β-CD). Control animals received vehicle (0.45% β-CD) throughout the duration of the experiment.
This test consisted of squirting 200 μl of a 10% sucrose solution on the mouse's snout. The grooming duration was quantified using Stopwatch+ (Center for Behavioral Neuroscience, Georgia State University).

CNC1(c2ccccc2Cl)CCCCC1=O (racemic) [ketamine, (RS)-2-(2-chlorophenyl)-2-(methylamino)cyclohexanone]
latency to escape the shock (129S6/SvEvTac mice [1]; testing 2 weeks later): decreased latency to escape the shock; also recorded: significantly less | session length (all 30 trials) (129S6/SvEvTac mice [1]): significantly shorter; also recorded: significantly less | prevalence of PTSD (military patients; ketamine during an operation for burns vs no ketamine, 2008): decreased | incidence rate of PTSD (military patients; with and without intraoperative ketamine, 2014): comparable incidence rate of PTSD | duration of sustained effects following the infusion (patients with MDD; in vivo): 1-2 weeks | time to antidepressant effects following a single injection (patients with MDD; patients with MDD): 2 h | latency to eat in NSF (129S6/SvEvTac mice [2]; Ctrl mice, ketamine in post-SD design, vs saline): decreased the latency to eat; also recorded: significantly decreased the latency to approach the food pellet | latency to eat in NSF (129S6/SvEvTac mice [2]; SD mice, ketamine after SD, vs SD-Sal): abolished; also recorded: did not differ from one another | latency to feed in NSF (129S6/SvEvTac mice [2]; ketamine 30 mg kg^−1 before SD): no significant effect | percentage of weight loss [3]: lessened the percentage of weight loss; also recorded: attenuated this weight loss | levels of CORT following a brief stressor [4]: did not differ from Ctrl-Sal mice | time in the closed arms of EPM (129S6/SvEvTac mice [5]): no significant effect of ketamine in either group | latency to groom in the ST (chronic CORT-induced depressive-like phenotype) (C57BL/6NTac mice): prevented the chronic CORT-induced depressive-like phenotype; also recorded: decreased the latency to groom

Reference: US11110070B2 (priority 2015, dated 2021)
